Reference: PubChem BioAssay AID858 (Vanderbilt High Throughput Screening Facility, 2007)
The source made the active and inactive calls.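 How the source made its calls: active means at least two of three replicate dose series yielding a converging curve fit, whether well or thinly supported; inactive means the rest.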

Target: D(1A) dopamine receptor (Homo sapiens) (UniProt P21728)
Assay: D1 receptor modulation with EC30 dopamine, dose response, D1 allosteric modulator project, cell-based, CRE-luciferase, HEK293 (AID 858);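 further: HEK 293 cells bearing human D1 receptor stimulated by dopamine at its EC30; luciferase light from a cAMP response element reporter gene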

Chain of D(1A) dopamine receptor (Homo sapiens) (P21728 whole entry, looked up): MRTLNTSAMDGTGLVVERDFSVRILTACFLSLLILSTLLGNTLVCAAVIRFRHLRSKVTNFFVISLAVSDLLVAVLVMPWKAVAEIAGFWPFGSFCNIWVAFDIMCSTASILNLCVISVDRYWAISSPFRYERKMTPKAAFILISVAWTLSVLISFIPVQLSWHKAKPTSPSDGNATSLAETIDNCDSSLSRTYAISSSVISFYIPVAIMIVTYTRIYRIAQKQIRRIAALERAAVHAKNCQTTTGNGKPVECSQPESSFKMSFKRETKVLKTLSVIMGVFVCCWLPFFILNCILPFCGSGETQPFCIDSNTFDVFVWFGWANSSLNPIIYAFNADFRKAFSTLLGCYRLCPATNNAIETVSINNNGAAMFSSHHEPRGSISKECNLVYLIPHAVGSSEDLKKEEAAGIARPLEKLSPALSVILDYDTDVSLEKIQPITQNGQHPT

SMILES | outcome | EC50 [nM]
COC(=O)/C(=C1/Oc2cc3c(cc2S1)OCO3)C(F)(F)F | inactive | 
COc1ccc(CCNc2nnc(Sc3nnnn3-c3ccccc3)s2)cc1OC | inactive | 
Cn1c(=O)c2c(-c3ccc(C(C)(C)C)cc3)n(N3CCOCC3)cc2n(C)c1=O | inactive | 
Cn1c(=O)c2c(nc(SCCCO)n2Cc2ccccc2Cl)n(C)c1=O | inactive | 
CSc1nc2c(c(=O)n1-c1ccccc1)SCC2 | inactive | 
CSc1nc2oc3c(c2c2nncn12)CC(C)(C)SC3 | inactive | 
c1ccc(COc2nsnc2N2CCOCC2)cc1 | inactive | 
CCCCNC(=O)c1cc(-c2ccc(OC)c(OC)c2)on1 | inactive | 
CCn1c(SCc2cccnc2)nc2c1c(=O)n(C)c(=O)n2C | inactive | 
CCOC(=O)C(O)(CCC(O)(C(=O)OCC)C(=O)OCC)C(=O)OCC | inactive | 
CCOC(=O)N1CCN(S(=O)(=O)c2ccc3c(c2)CCN3C(=O)C2CCC2)CC1 | inactive | 
CCCCn1c(=NC(=O)c2cccnc2)c(C(=O)OCC)cc2c(=O)n3ccccc3nc21 |  | 2020
CCCCNC(=O)Nc1ccc(Br)cn1 |  | 2430
CCCNc1nc2c(c(=O)[nH]c(=O)n2C)n1CCc1ccccc1 | inactive | 
COc1ccc(Cc2nnc(NC(=O)c3c(-c4ccccc4)noc3C)s2)cc1 | inactive | 
COc1cc(OC)cc(C(=O)Nn2cc(C(=O)N3CCN(C)CC3)c3ccccc3c2=O)c1 | inactive | 
Nc1nc2n(n1)C(c1ccco1)CC(c1ccc(F)cc1)N2 (stereo not drawn) | inactive | 
O=C(OCC#CCSc1nnc(-c2ccc(Br)cc2)o1)c1ccco1 | inactive | 
CCN(CCCNC(=O)CN(C)S(=O)(=O)c1cccc2nsnc12)c1cccc(C)c1 | inactive | 
CCOC(=O)c1c(C)c(C(=O)NCc2ccc3c(c2)OCO3)c(C)n1C | inactive | 
Cc1cc(C)n(-c2nc3ccccc3nc2Nc2ccc(CC(=O)O)cc2)n1 | inactive | 
CCc1nc2sc3ccccc3c(=O)c2c(=O)n1Cc1ccco1 | inactive | 
CSc1ccc(C2C(C#N)=C(N)N(c3ccccc3)C3=C2C(=O)CCC3)cc1 (stereo not drawn) | inactive | 

SMILES | outcome | EC50 [nM]
CC1=CC(C)(C)N=C(NC#N)N1 | inactive | 
CNc1nc(C)c(C#N)c(-c2ccccc2)c1C(C)=O |  | 2330
CCCc1cc(=O)[nH]c(NCc2ccc(Cl)cc2)n1 | inactive | 
Cn1c(=O)c2c(nc(SCCCC#N)n2Cc2ccccc2F)n(C)c1=O | inactive | 
O=C(NCc1cccs1)C1CC(c2ccccc2O)=NO1 (stereo not drawn) | inactive | 
CCOc1ccc(CC(=O)Nc2c(C(N)=O)oc3ccccc23)cc1OCC | inactive | 
CCn1c(=O)c(C(=O)NCc2cccnc2)c(O)c2ccccc21 | inactive | 
Cc1cc(NCCCn2ccnc2)n2c(nc3ccccc32)c1C#N | inactive | 
CCOc1ccc(N/C(SC)=C(/C#N)C(N)=O)cc1 | inactive | 
N#Cc1nc(-c2ccc(F)cc2)oc1NCc1ccccc1 | inactive | 
CC(C)Cn1c(=O)c2c(c3ccccc31)OC(C)C(=O)N2 (stereo not drawn) | inactive | 
COC(=O)c1sc(=S)sc1C(=O)OC | inactive | 
CCOCCOC(=O)C1=C(C)Nc2ccc(C)cc2S1 | inactive | 
COc1ccc(C2CC(c3cc(OC)ccc3OC)n3nnnc3N2)cc1 (stereo not drawn) | inactive | 
Cc1cc(C)n(CC(=O)n2c3c(c4ccccc42)CCCC3)n1 | inactive | 
Cc1[nH]n(-c2ccccc2)c(=O)c1S(=O)(=O)c1ccccc1 | inactive | 
Clc1ccc(-n2nnnc2-c2ccccc2)cc1 | inactive | 
Cc1csc2c(C#N)c(=O)c3c(n12)CCC3 | inactive | 
Cn1c(Cn2c(=O)sc3ccccc32)nnc1SCC(=O)N1CCOCC1 | inactive | 
C=CCc1c(C)nc(SC)nc1Nc1ccc(C(=O)O)cc1 | inactive | 
CCOc1ccc(C2Oc3nc(SC)nnc3-c3ccccc3N2C(C)=O)cc1OC (stereo not drawn) |  | 2380
O=c1nc2scc(-c3ccccc3)n2c2ccccc12 | inactive | 
Cc1nnc(SCCn2c(N3CCCC(C)C3)nc3c2c(=O)[nH]c(=O)n3C)s1 (stereo not drawn) | inactive | 

SMILES | outcome | EC50 [nM]
COc1ccc(-c2noc(CCN3C(=O)c4ccccc4C3=O)n2)cc1OC |  | 309
CCOc1ncccc1C(=O)OCc1nnc(-c2ccccc2)o1 | inactive | 
Cc1onc(-c2ccccc2)c1C(=O)Nc1ccc2c(c1)OCO2 | inactive | 
Cc1nc(-c2ccc(S(=O)(=O)N3CCCCCC3)cc2)cs1 | inactive | 
COc1cccc(NC2=NCC(=O)N2Cc2cccs2)c1 | inactive | 
Cc1cc(NS(=O)(=O)c2ccc(NC(=O)COc3ccccc3C(C)C)cc2)no1 | inactive | 
CCOC(=O)c1c(-c2ccncc2)csc1N | inactive | 
COc1ccc(S(=O)(=O)N2CCSC2c2ccc(OC)c(OC)c2)cc1 (stereo not drawn) | inactive | 
O=C(NCc1ccco1)c1cnn2c(C(F)(F)F)cc(-c3ccco3)nc12 | inactive | 
CCC(C)Sc1nc2c(c(=O)n1C)SC(C)C2 (stereo not drawn) | inactive | 
Cc1cc(C)c(C#N)c(SCc2ccc(C#N)cc2)n1 | inactive | 
CC(=O)N=c1sc2nc3ccccc3nc2n1N(C(C)=O)C(C)=O | inactive | 
N#Cc1cc2ccccc2nc1SCC(=O)Nc1ccc(S(=O)(=O)N2CCCC2)cc1 | inactive | 
CCC(Sc1nc(=O)cc(N)n1CCc1ccccc1)C(=O)Nc1ccccc1C#N (stereo not drawn) | inactive | 
CC(C)C1N=C2c3ccccc3N=C(SCC#N)N2C1=O (stereo not drawn) |  | 3140
C=CCNc1sc(C(=O)C(C)(C)C)c(N)c1C#N |  | 1140
COc1ccc2c(c1)C(=O)N(c1ccccc1OC)C(=O)C2(C)C | inactive | 
O=c1c2cc(Cl)ccc2[nH]c(=S)n1Cc1ccco1 | inactive | 
Cn1cccc1C1NC(=O)c2c(sc3c2CCC(C(C)(C)C)C3)N1 (stereo not drawn) | inactive | 
COc1ccc(S(=O)(=O)Nc2ccc3c(c2)OCO3)cc1OC | inactive | 
COc1ccccc1-c1nnc2n1N=C(C(C)(C)C)CS2 | inactive | 
COc1cccc(-c2nnc(SCC(=O)Nc3cc(C)on3)o2)c1 | inactive | 
Cc1cc2cc(CN(CCN3CCOCC3)C(=O)Nc3ccccc3F)c(=O)[nH]c2cc1C | inactive | 

SMILES | outcome | EC50 [nM]
O=C(CC1SC(=NC2CCCCC2)NC1=O)Nc1ccccc1 (stereo not drawn) | inactive | 
CCOC(=O)c1oc2ccc(Br)cc2c1NC(=O)CN1CCN(C)CC1 | inactive | 
CC(=O)c1cc(C#N)c(SCC(=O)OC(C)(C)C)nc1C | inactive | 
CCOC(=O)N1CCC(N2Cc3cccc(C(=O)NC(C)c4ccc5c(c4)OCCO5)c3C2=O)CC1 (stereo not drawn) | inactive | 
CCc1nc(N2CCCCC2)c2oc3ccccc3c2n1 | inactive | 
Cc1cc(N2CCN(S(=O)(=O)c3ccc4c(c3)OCCO4)CC2)n2ncnc2n1 | inactive | 
Cc1cc(=O)n(CC=C(Cl)Cl)c2ccccc12 | inactive | 
c1ccc(-c2nc3ccccc3c3nncn23)cc1 | inactive | 
Cc1noc(C)c1CSc1ncnc2ccccc12 | inactive | 
CCCn1c(=NC(C)=O)c(C(=O)OCC)cc2c(=O)n3ccccc3nc21 | inactive | 
Cc1ccc(-c2cc(-c3ccc(C)o3)nc(N)c2C#N)cc1 | inactive | 
COC(=O)Nc1ccc2c(c1)N(C(=O)CCN1CCOCC1)c1ccccc1S2 | inactive | 
Nc1nc(SCC(=O)OCc2ccccc2)[nH]c(=O)c1NC(=O)c1ccco1 | inactive | 
CC(C)c1ccc(-c2nc(N3CCCCC3)[nH]c(=O)c2C#N)cc1 |  | 1750
O=C(CCSc1nc2ccccc2o1)N1CCOCC1 | inactive | 
O=C(c1cccn2c(=O)c3cc(Cl)ccc3nc12)N1CCN(Cc2ccc3c(c2)OCO3)CC1 | inactive | 
c1ccc(Nc2nc3ccccc3n3cnnc23)cc1 | inactive | 
c1ccc(C2=Nn3c(nnc3-c3ccncc3)SC2)cc1 | inactive | 
CCN(CC)CCOc1c(Br)ccc2c1sc1nc3n(c(=O)c12)CCC3 | inactive | 
CCOC(=O)c1[nH]c2ccccc2c1NC(=O)C(C)(C)C | inactive | 
CCOC(=O)c1ccc(N2CN=C3SCC(=O)N3C2)cc1 | inactive | 
CCCOc1ccccc1NC(=O)c1ccc(N)cc1 | inactive | 
CCCn1c(=O)c2ccccc2n2c(SCc3nc4ccccc4s3)nnc12 | inactive | 

SMILES | outcome | EC50 [nM]
O=S(=O)(c1ccccc1)c1nc(-c2ccco2)oc1N1CCCCCC1 | inactive | 
COc1ccc(-c2coc3cc(O)ccc3c2=O)cc1OC | inactive | 
O=c1cc(-c2ccccc2)c2c([nH]1)CCCC2 | inactive | 
CCC1(CC)C(=O)NC(=NCCc2c[nH]c3ccccc23)NC1=O | inactive | 
CN(C)c1oc(-c2ccccc2Cl)nc1C#N | inactive | 
CCOc1ccccc1C1NC(=O)NC(C)=C1C(=O)OC1CCCCC1 (stereo not drawn) | inactive | 
C=CCn1c(=S)[nH]c2nc3c(cc2c1=O)CCCC3 | inactive | 
Cc1noc(C)c1S(=O)(=O)N1CCCC(C(=O)NCc2ccccn2)C1 (stereo not drawn) | inactive | 
CCCn1c2c(c(O)c(C(=O)NC)c1=O)CCCC2 | inactive | 
Clc1ccccc1-c1nnc2sc(-c3ccc(Br)o3)nn12 | inactive | 
CCn1nc(C(=O)NC2=NCCS2)c2ccccc2c1=O | inactive | 
Cc1ccc(OCCN2C(=O)OC(C)(C)C2(C)O)cc1 (stereo not drawn) | inactive | 
O=C1COc2ccccc2N1Cc1ccccc1Cl | inactive | 
Fc1ccc(-c2cc(C(F)(F)F)nc(-n3cncn3)n2)cc1 | inactive | 
COc1ccc2nc(SCC(=O)N3CCCCCC3)c(C#N)cc2c1 | inactive | 
CCc1nnc(NC(=O)CSc2ncc(-c3ccccc3)n2CC)s1 | inactive | 
c1ccc(C2CC(c3ccccc3)n3ncnc3N2)cc1 (stereo not drawn) | inactive | 
CCn1c(=O)c2cc(S(=O)(=O)NC3CCCCC3)ccc2n(CC)c1=O | inactive | 
CCCCNC(=O)c1ccc2nc(-c3ccco3)c(-c3ccco3)nc2c1 | inactive | 
Cc1nc2ccc(CCO)cc2s1 | inactive | 
C=CCn1c2ccccc2c2nnc(SCC(=O)NC(C(=O)OC)C(C)C)nc21 (stereo not drawn) | inactive | 
